Reference: PubChem BioAssay (NCI)
Values joined by “and” are separate entries in the source; they are usually repeats but may differ in a detail not shown here. Equal entries are not always repeated.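 The compound was tested at five concentrations on cells cultured in 96-well plates, with a 48-hour exposure period. GI50 marks 50% less growth. Definition used: TGI = concentration required for complete inhibition of growth.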

These molecules were tested on HL-60(TB) leukemia (assay: NCI anticancer screen, dose series, 48 h).
Molecule `CSc1nc(NC2OC(COC(C)=O)C(OC(C)=O)C(OC(C)=O)C2OC(C)=O)c(N=CC=Nc2c(NC3OC(COC(C)=O)C(OC(C)=O)C(OC(C)=O)C3OC(C)=O)nc(SC)n(C)c2=O)c(=O)n1C` (configuration not stated) has a GI50 greater than 50 µM and a TGI greater than 100 µM.
In the case of `O=S(=O)(Nc1ccc(Cl)cc1Cl)c1ccc(-c2cnc(C3CC3)o2)cc1`, the GI50 is reported as 0.351 µM and the TGI is reported as 9.41 µM.
Work on `CCc1ccc(/C=C/c2ccc(O)c3ncccc23)[n+](C)c1` yielded a GI50 of 18.8 µM and a TGI of 73.2 µM.
`S=c1[nH]c2c(Cl)c(Cl)c(Cl)c(Cl)c2[nH]1` showed a TGI of 13 µM.
`Cc1ccc(Nc2oc(-c3ccccc3)nc2[P+](c2ccccc2)(c2ccccc2)c2ccccc2)cc1` was tested, and the GI50 was 0.425 µM and the TGI was 1.39 µM.
`CS(=O)(=O)Nc1cc(-c2ccc3ncnc(Nc4c(Cl)ccc5c4OCO5)c3c2)cnc1Cl` was tested, and the GI50 was 0.159 µM and the TGI was 0.92 µM.
Work on `COc1ccccc1Nc1ncc(-c2ccccc2)o1` yielded a GI50 greater than 25 µM and a TGI greater than 25 µM.
`Nc1ccn(C2OC(CO)C(O)C2O)c(=O)n1` (configuration not stated) was tested, and the GI50 was 0.493 µM.
With `O=C1CCC(=O)c2c1c(O)c1ccncc1c2O` the TGI was 26.4 µM.
`CN(C)c1ccc(N=Nc2ccccn2)c(O)c1` gave a GI50 of 0.228 µM and a TGI of 1.46 µM.
In the case of `CN1CC[C@@H](c2c(O)cc(O)c3c(=O)cc(-c4ccc(C(F)(F)F)cc4Cl)oc23)[C@@H]1CO`, the GI50 is reported as 8.37 µM and the TGI is reported as 33.6 µM.
With `COC(=O)C1=C(C(=O)OC)C2=S(SC3=C2CCCC3)S1` (configuration not stated) the TGI was 30.9 µM.
For `O=C(NNc1ccccc1)C(=O)NNc1ccccc1`, the GI50 was 0.627 µM and the TGI was 5.28 µM.
`O=C(Nc1ccc(Cl)c(C(F)(F)F)c1)c1ccc(NC2=C(Cl)C(=O)N(Cc3ccccc3)C2=O)cc1` was tested, and the GI50 was 2.58 µM and the TGI was 6.46 µM.

The molecules below were run on U251 CNS (assay: NCI anticancer screen, dose series, 48 h).
`COc1cc(/C=C/C(=O)c2cccc(-n3cc(-c4ccc(Cl)cc4)[nH]c3=O)c2)ccc1O` showed a GI50 of 2.19 µM and a TGI of 6.01 µM.
`Cc1ccc2c(C3C(C#N)=C(N)Oc4cc5ccccc5cc43)cc(=O)oc2c1` (configuration not stated) was tested, and the GI50 was 2.28 µM and the TGI was greater than 100 µM.
`C[N+](C)(C)CC1CCC/C1=N\OC(=O)c1ccccc1` (configuration not stated) showed a TGI greater than 100 µM.
Molecule `O=C(Nc1cc(C(F)(F)F)ccc1Cl)c1cccc(NC2=C(Cl)C(=O)N(Cc3ccccc3)C2=O)c1` has a GI50 of 11.1 µM and a TGI greater than 100 µM.
In the case of `CC1(Br)Cc2ccccc2C1=O` (configuration not stated), the TGI is reported as 18.7 µM.
`COc1ccc2c(c1)c[n+](C)c1c3cc(OC)c(OC)cc3ccc21` was tested, and the TGI was 2.3 µM and 5.45 µM.
In the case of `CN(C)C(=S)Sc1ccc([N+](=O)[O-])cc1[N+](=O)[O-]`, the GI50 is reported as 1.58 µM and the TGI is reported as 8.97 µM.
Molecule `O=C1c2cc3c(cc2-c2c1c1cc(Cl)c(Cl)cc1c(=O)n2C[C@H](O)CO)OCO3` has a GI50 of less than 0.01 µM and a TGI of 0.0368 µM.
Molecule `CC(C)(C)[Si](C)(C)OC1C(=O)C[C@H]2CCCC[C@@H]12` (some centres not stated) has a TGI greater than 100 µM.
For `CC1(C)N=C(N)N=C(N)N1c1ccc(CCCCc2ccc(Cl)c(S(=O)(=O)F)c2)c(Cl)c1`, the GI50 was 0.437 µM and the TGI was 19.6 µM.
In the case of `CCc1c(Cl)c(C)cc(O)c1Cl`, the TGI is reported as 29 µM.
Molecule `BrCc1cccc(C[P+](c2ccccc2)(c2ccccc2)c2ccccc2)c1` has a GI50 of 6.86 µM and a TGI greater than 100 µM.
In the case of `C=COC(=O)N[C@H]1CCc2cc(OC)c(OC)c(OC)c2-c2ccc(SC)c(=O)cc21`, the TGI is reported as 3.02 µM.
Work on `Cc1ccc(NC(=O)CCc2nnc(N)o2)cc1` yielded a TGI greater than 100 µM.
For `CN(C)c1ncnc2c1ncn2CCn1cnc2c(N(C)C)ncnc21`, the TGI was greater than 100 µM.
`CSc1nc(NC2OC(COC(C)=O)C(OC(C)=O)C(OC(C)=O)C2OC(C)=O)c(N=CC=Nc2c(NC3OC(COC(C)=O)C(OC(C)=O)C(OC(C)=O)C3OC(C)=O)nc(SC)n(C)c2=O)c(=O)n1C` (configuration not stated) was tested, and the GI50 was 20.6 µM and the TGI was 50 µM and > 100 µM.
Work on `O=S(=O)(Nc1ccc(Cl)cc1Cl)c1ccc(-c2cnc(C3CC3)o2)cc1` yielded a GI50 of 0.613 µM and a TGI of 33.8 µM.
For `CCc1ccc(/C=C/c2ccc(O)c3ncccc23)[n+](C)c1`, the GI50 was 0.661 µM and the TGI was greater than 100 µM.
`S=c1[nH]c2c(Cl)c(Cl)c(Cl)c(Cl)c2[nH]1` gave a TGI greater than 100 µM.
For `Cc1ccc(Nc2oc(-c3ccccc3)nc2[P+](c2ccccc2)(c2ccccc2)c2ccccc2)cc1`, the GI50 was 0.538 µM and the TGI was 1.71 µM.
`CS(=O)(=O)Nc1cc(-c2ccc3ncnc(Nc4c(Cl)ccc5c4OCO5)c3c2)cnc1Cl` showed a GI50 of 0.331 µM and a TGI of 2.63 µM.
`COc1ccccc1Nc1ncc(-c2ccccc2)o1` was tested, and the GI50 was greater than 25 µM and the TGI was greater than 25 µM.
`Nc1ccn(C2OC(CO)C(O)C2O)c(=O)n1` (configuration not stated) gave a GI50 of 0.635 µM and a TGI greater than 500 µM.
`O=C1CCC(=O)c2c1c(O)c1ccncc1c2O` gave a TGI of 64.3 µM.
With `CN(C)c1ccc(N=Nc2ccccn2)c(O)c1` the GI50 was 0.258 µM and the TGI was greater than 100 µM.
`CN1CC[C@@H](c2c(O)cc(O)c3c(=O)cc(-c4ccc(C(F)(F)F)cc4Cl)oc23)[C@@H]1CO` gave a GI50 of 16.7 µM and a TGI of 33.9 µM.
With `COC(=O)C1=C(C(=O)OC)C2=S(SC3=C2CCCC3)S1` (configuration not stated) the TGI was 70.1 µM.
Work on `O=C(NNc1ccccc1)C(=O)NNc1ccccc1` yielded a GI50 greater than 100 µM and a TGI greater than 100 µM.
With `O=C(Nc1ccc(Cl)c(C(F)(F)F)c1)c1ccc(NC2=C(Cl)C(=O)N(Cc3ccccc3)C2=O)cc1` the GI50 was 2.15 µM and the TGI was 5.23 µM.

These molecules were tested on COLO 205 colon (assay: NCI anticancer screen, dose series, 48 h).
`COc1cc(/C=C/C(=O)c2cccc(-n3cc(-c4ccc(Cl)cc4)[nH]c3=O)c2)ccc1O` gave a GI50 of 4.88 µM and a TGI of 16 µM.
In the case of `Cc1ccc2c(C3C(C#N)=C(N)Oc4cc5ccccc5cc43)cc(=O)oc2c1` (configuration not stated), the GI50 is reported as 2.88 µM and the TGI is reported as 17.3 µM.
For `C[N+](C)(C)CC1CCC/C1=N\OC(=O)c1ccccc1` (configuration not stated), the TGI was greater than 100 µM.
For `O=C(Nc1cc(C(F)(F)F)ccc1Cl)c1cccc(NC2=C(Cl)C(=O)N(Cc3ccccc3)C2=O)c1`, the GI50 was 41.5 µM and the TGI was greater than 100 µM.
`CC1(Br)Cc2ccccc2C1=O` (configuration not stated) was tested, and the TGI was 17.5 µM.
With `COc1ccc2c(c1)c[n+](C)c1c3cc(OC)c(OC)cc3ccc21` the TGI was 3.5 µM and 2.99 µM.
With `CN(C)C(=S)Sc1ccc([N+](=O)[O-])cc1[N+](=O)[O-]` the GI50 was 0.8 µM and the TGI was 3.02 µM.
Molecule `O=C1c2cc3c(cc2-c2c1c1cc(Cl)c(Cl)cc1c(=O)n2C[C@H](O)CO)OCO3` has a GI50 of less than 0.01 µM and a TGI of 0.291 µM.
With `CC(C)(C)[Si](C)(C)OC1C(=O)C[C@H]2CCCC[C@@H]12` (some centres not stated) the TGI was greater than 100 µM.
`CC1(C)N=C(N)N=C(N)N1c1ccc(CCCCc2ccc(Cl)c(S(=O)(=O)F)c2)c(Cl)c1` was tested, and the GI50 was 1.71 µM and the TGI was 7.98 µM.
With `CCc1c(Cl)c(C)cc(O)c1Cl` the TGI was greater than 100 µM.
`BrCc1cccc(C[P+](c2ccccc2)(c2ccccc2)c2ccccc2)c1` gave a GI50 of 4.57 µM and a TGI of 18.9 µM.
With `C=COC(=O)N[C@H]1CCc2cc(OC)c(OC)c(OC)c2-c2ccc(SC)c(=O)cc21` the TGI was less than 0.01 µM.
For `Cc1ccc(NC(=O)CCc2nnc(N)o2)cc1`, the TGI was greater than 100 µM.
For `CN(C)c1ncnc2c1ncn2CCn1cnc2c(N(C)C)ncnc21`, the TGI was greater than 100 µM.
Work on `CSc1nc(NC2OC(COC(C)=O)C(OC(C)=O)C(OC(C)=O)C2OC(C)=O)c(N=CC=Nc2c(NC3OC(COC(C)=O)C(OC(C)=O)C(OC(C)=O)C3OC(C)=O)nc(SC)n(C)c2=O)c(=O)n1C` (configuration not stated) yielded a GI50 greater than 50 µM and a TGI greater than 100 µM.
`O=S(=O)(Nc1ccc(Cl)cc1Cl)c1ccc(-c2cnc(C3CC3)o2)cc1` gave a GI50 of 1.13 µM and a TGI of 11.1 µM.
For `CCc1ccc(/C=C/c2ccc(O)c3ncccc23)[n+](C)c1`, the GI50 was 8.07 µM and the TGI was greater than 89.8 µM.
`S=c1[nH]c2c(Cl)c(Cl)c(Cl)c(Cl)c2[nH]1` gave a TGI of 32.3 µM.
In the case of `Cc1ccc(Nc2oc(-c3ccccc3)nc2[P+](c2ccccc2)(c2ccccc2)c2ccccc2)cc1`, the GI50 is reported as 1.33 µM and the TGI is reported as 3.1 µM.
`CS(=O)(=O)Nc1cc(-c2ccc3ncnc(Nc4c(Cl)ccc5c4OCO5)c3c2)cnc1Cl` gave a GI50 of 0.263 µM and a TGI of 1.35 µM.
`COc1ccccc1Nc1ncc(-c2ccccc2)o1` was tested, and the GI50 was greater than 25 µM and the TGI was greater than 25 µM.
`Nc1ccn(C2OC(CO)C(O)C2O)c(=O)n1` (configuration not stated) was tested, and the TGI was greater than 500 µM.
`O=C1CCC(=O)c2c1c(O)c1ccncc1c2O` gave a TGI of 20.8 µM.
Molecule `CN(C)c1ccc(N=Nc2ccccn2)c(O)c1` has a GI50 of 0.345 µM and a TGI greater than 34.8 µM.
`CN1CC[C@@H](c2c(O)cc(O)c3c(=O)cc(-c4ccc(C(F)(F)F)cc4Cl)oc23)[C@@H]1CO` showed a GI50 of 15.1 µM and a TGI of 32.9 µM.
Molecule `COC(=O)C1=C(C(=O)OC)C2=S(SC3=C2CCCC3)S1` (configuration not stated) has a TGI greater than 100 µM.
Work on `O=C(NNc1ccccc1)C(=O)NNc1ccccc1` yielded a GI50 of 2.73 µM and a TGI of 48.5 µM.
Work on `O=C(Nc1ccc(Cl)c(C(F)(F)F)c1)c1ccc(NC2=C(Cl)C(=O)N(Cc3ccccc3)C2=O)cc1` yielded a GI50 of 19.2 µM and a TGI of 56.8 µM.
